Where two headings read alike, the source gives them in different places.
Tests used:
Assay in all cases: MIC, serial dilution method (CLSI)
E. faecalis = type: cell-based, Enterococcus faecalis
Procedure: (§1) These inoculums were each in diluted 1:100 in Müller Hinton (MH) broth (Sigma, Copenhagen, Denmark). From the diluted inoculums 100 μl was transferred to each well in a 96-well plate and mixed with the compound to be MIC determined. The plate was incubated for 24 hours at 37° C. (without shaking). The MIC value was determined as the lowest concentration in which no bacterial growth could be visually detected. All MIC determinations were done in duplicates. […] Since all derivatives are new, no control strains (with reference MIC values) were available.

[1] = tested on: Staphylococus pseudintermedius; type: cell-based, Staphylococcus pseudintermedius
Procedure: as §1

E. coli APEC O2 = type: cell-based, Escherichia coli
Procedure: as §1

Bacillus cereus = type: cell-based
Procedure: as §1

Salmonella enteritidis = type: cell-based
Procedure: as §1

Listeria monocytogenes = type: cell-based
Procedure: as §1

Streptococcus equi = type: cell-based
Procedure: as §1

E. faecium = type: cell-based, Enterococcus faecium
Procedure: as §1

S. aureus USA300 = type: cell-based, Staphylococcus aureus
Procedure: as §1

S. aureus CC398 = type: cell-based, Staphylococcus aureus
Procedure: as §1

[2] = Enterococcus faecalis, 24 h, read-out: MIC
[3] = Staphylococcus pseudintermedius, 24 h, read-out: MIC
[4] = Escherichia coli, APECO2, 24 h, read-out: MIC
[5] = Salmonella enterica, ENTERITIDIS, 24 h, read-out: MIC
[6] = Enterococcus faecium, 24 h, read-out: MIC
[7] = Staphylococcus aureus, USA300, 24 h, read-out: MIC
[8] = Staphylococcus aureus, MRSA, 24 h, read-out: MIC
[9] = E. faecalis, MH broth, 24 hours at 37° C., set to 256 if growth at […]
[10] = Staphylococus pseudintermedius, MH broth, 24 hours at 37° C., set to 256 if growth at […]
[11] = E. coli APEC O2, MH broth, 24 hours at 37° C., set to 256 if growth at […]
[12] = MH broth, 24 hours at 37° C., set to 256 if growth at […]
[13] = Salmonella enteritidis, MH broth, 24 hours at 37° C., set to 256 if growth at […]
[14] = E. faecium, MH broth, 24 hours at 37° C., set to 256 if growth at […]
[15] = S. aureus USA300, MH broth, 24 hours at 37° C., set to 256 if growth at […]
[16] = S. aureus CC398 (MRSA strain), MH broth, 24 hours at 37° C., set to 256 if growth at […]

| Compound | MIC (E. faecalis; [2]) [µg/mL] | MIC [1, 3] [µg/mL] | MIC (E. coli APEC O2; [4]) [µg/mL] | MIC (Bacillus cereus; 24 h, read-out: MIC) [µg/mL] | MIC (Salmonella enteritidis; [5]) [µg/mL] | MIC (Listeria monocytogenes; 24 h, read-out: MIC) [µg/mL] | MIC (Streptococcus equi; 24 h, read-out: MIC) [µg/mL] | MIC (E. faecium; [6]) [µg/mL] | MIC (S. aureus USA300; [7]) [µg/mL] | MIC (S. aureus CC398; [8]) [µg/mL] | MIC (E. faecalis; [9]) [µg/mL] | MIC [1, 10] [µg/mL] | MIC (E. coli APEC O2; [11]) [µg/mL] | MIC (Bacillus cereus; [12]) [µg/mL] | MIC (Salmonella enteritidis; [13]) [µg/mL] | MIC (Listeria monocytogenes; [12]) [µg/mL] | MIC (Streptococcus equi; [12]) [µg/mL] | MIC (E. faecium; [14]) [µg/mL] | MIC (S. aureus USA300; [15]) | MIC (S. aureus CC398; [16]) [µg/mL] |
| --- | --- | --- | --- | --- | --- | --- | --- | --- | --- | --- | --- | --- | --- | --- | --- | --- | --- | --- | --- | --- |
| CC(CN1c2ccccc2Sc2ccccc21)[N+](C)(C)C.[I-] (stereo not shown) [Compound S13, N,N,N-trimethyl-1-(10H-phenothiazin-10-yl)propan-2-aminium iodide] | 256 | 64 | 256 | 128 | 128 | 256 | 32 | 128 | 128 | 128 | – | – | – | – | – | – | – | – | – | – |
| CCCCCCCCCCCC[N+](C)(C)CC/C=C1/c2ccccc2Sc2ccc(Cl)cc21.[Br-] [Compound S39, (Z)—N-(3-(2-chloro-9H-thioxanthen-9-ylidene)propyl)-N,N-dimethyldodecan-1-aminium bromide] | – | – | – | – | – | – | – | – | 4 | – | – | – | – | – | – | – | – | – | – | – |
| CSc1ccc2c(c1)N(CCC1CCCC[N+]1(C)C(C)C)c1ccccc1S2.[Br-] (stereo not shown) [Compound S26, 1-isopropyl-1-methyl-2-(2-(2-(methylthio)-10H-phenothiazin-10-yl)ethyl)piperidin-1-ium bromide] | 32 | 8 | 128 | 8 | 128 | 8 | 8 | 16 | 8 | 8 | – | – | – | – | – | – | – | – | – | – |
| CC(C)[N+](C)(C)C(C)CN1c2ccccc2Sc2ccccc21.[Br-] (stereo not shown) [Compound S15, N-isopropyl-N,N-dimethyl-1-(10H-phenothiazin-10-yl)propan-2-aminium bromide] | 128 | 32 | 128 | 128 | 128 | 128 | 256 | 128 | 64 | 16 | – | – | – | – | – | – | – | – | – | – |
| CCOC(=O)CC[N+]1(C)CCCCC1CCN1c2ccccc2Sc2ccc(SC)cc21 (stereo not shown) [Thioridazine 3-Ethoxy-3-oxo-1-propyl] | – | – | – | – | – | – | – | – | – | – | 32 | 16 | 256 | 4 | 128 | 4 | 8 | 32 | 32 µg/mL | 32 |
| C[N+](C)(CCC=C1c2ccccc2Sc2ccc(Cl)cc21)Cc1ccccc1 [Chlorprothixene Benzyl] | – | – | – | – | – | – | – | – | – | – | 16 | 2 | 64 | 16 | 64 | 32 | 2 | 16 | 4 µg/mL | 2 |
| CC(C)=CCCC(C)CC[N+](C)(C)C(C)CN1c2ccccc2Sc2ccccc21.Cc1ccc(S(=O)(=O)[O-])cc1 (stereo not shown) [Compound S45, N-(1-(10H-phenothiazin-10-yl)propan-2-yl)-N,N,3,7-tetramethyloct-6-en-1-aminium 4-methylbenzenesulfonate] | – | – | – | – | – | – | – | – | 4 | – | – | – | – | – | – | – | – | – | – | – |
| COC(=O)CCCCC[N+](C)(C)C(C)CN1c2ccccc2Sc2ccccc21 (stereo not shown) [Promethazine 6-Methoxy-6-oxo-1-hexyl] | – | – | – | – | – | – | – | – | – | – | 256 | 32 | 256 | 128 | 256 | 128 | 32 | 128 | 64 µg/mL | 64 |
| CCCCCCCCCCCCCC[N+](C)(C)C(C)CN1c2ccccc2Sc2ccccc21.[Br-] (stereo not shown) [Compound S44, N-(1-(10H-phenothiazin-10-yl)propan-2-yl)-N,N-dimethyltetradecan-1-aminium bromide] | – | – | – | – | – | – | – | – | – | – | – | – | – | – | – | – | – | – | 8/16 | – |

Second part, the compound after the results:

| MIC (E. faecalis; [2]) [µg/mL] | MIC [1, 3] [µg/mL] | MIC (E. coli APEC O2; [4]) [µg/mL] | MIC (Bacillus cereus; 24 h, read-out: MIC) [µg/mL] | MIC (Salmonella enteritidis; [5]) [µg/mL] | MIC (Listeria monocytogenes; 24 h, read-out: MIC) [µg/mL] | MIC (Streptococcus equi; 24 h, read-out: MIC) [µg/mL] | MIC (E. faecium; [6]) [µg/mL] | MIC (S. aureus USA300; [7]) [µg/mL] | MIC (S. aureus CC398; [8]) [µg/mL] | MIC (E. faecalis; [9]) [µg/mL] | MIC [1, 10] [µg/mL] | MIC (E. coli APEC O2; [11]) [µg/mL] | MIC (Bacillus cereus; [12]) [µg/mL] | MIC (Salmonella enteritidis; [13]) [µg/mL] | MIC (Listeria monocytogenes; [12]) [µg/mL] | MIC (Streptococcus equi; [12]) [µg/mL] | MIC (E. faecium; [14]) [µg/mL] | MIC (S. aureus USA300; [15]) | MIC (S. aureus CC398; [16]) [µg/mL] | Compound |
| --- | --- | --- | --- | --- | --- | --- | --- | --- | --- | --- | --- | --- | --- | --- | --- | --- | --- | --- | --- | --- |
| 16 | 4 | 64 | 8 | 64 | 8 | 4 | 16 | 4 | 4 | – | – | – | – | – | – | – | – | – | – | CC(C)CC[N+](C)(C)CC/C=C1/c2ccccc2Sc2ccc(Cl)cc21.[Br-] [Compound S37, (Z)—N-(3-(2-chloro-9H-thioxanthen-9-ylidene)propyl)-N,N,3-trimethylbutan-1-aminium bromide] |
| 128 | 32 | 256 | 64 | 256 | 64 | 32 | 64 | 64 | 64 | – | – | – | – | – | – | – | – | – | – | CCCCC[N+](C)(C)CCCN1c2ccccc2Sc2ccc(Cl)cc21.[Br-] [Compound S6, N-(3-(2-chloro-10H-phenothiazin-10-yl)propyl)-N,N-dimethylpentan-1-aminium bromide] |
| 64 | 8 | 64 | 16 | 128 | 32 | 8 | 64 | 16 | 16 | – | – | – | – | – | – | – | – | – | – | CC(C)CC[N+](C)(C)C(C)CN1c2ccccc2Sc2ccccc21.[Br-] (stereo not shown) [Compound S16, N-(1-(10H-phenothiazin-10-yl)propan-2-yl)-N,N,3-trimethylbutan-1-aminium bromide] |
| 64 | 8 | 256 | 64 | 128 | 32 | 8 | 64 | 16 | 16 | – | – | – | – | – | – | – | – | – | – | C=CC[N+](C)(C)CCCN1c2ccccc2Sc2ccc(Cl)cc21.[Br-] [Compound S40, N-(3-(2-chloro-10H-phenothiazin-10-yl)propyl)-N,N-dimethylprop-2-en-1-aminium bromide] |
| 128 | 8 | 128 | 32 | 128 | 32 | 32 | 64 | 16 | 16 | – | – | – | – | – | – | – | – | – | – | CC(C)[N+](C)(C)CCCN1c2ccccc2Sc2ccc(Cl)cc21.[Br-] [Compound S4, 3-(2-chloro-10H-phenothiazin-10-yl)-N-isopropyl-N,N-dimethylpropan-1-aminium bromide] |
| – | – | – | – | – | – | – | – | – | – | 16 | 2 | 64 | 4 | 64 | 8 | 2 | 16 | 8 µg/mL | 4 | C[N+](C)(CCCN1c2ccccc2Sc2ccc(Cl)cc21)Cc1ccccc1 [Chlorpromazine Benzyl] |
| 32 | 8 | 128 | 64 | 128 | 32 | 8 | 32 | 16 | 16 | – | – | – | – | – | – | – | – | – | – | CC(C)CC[N+](C)(C)CCCN1c2ccccc2Sc2ccc(Cl)cc21.[Br-] [Compound S5, N-(3-(2-chloro-10H-phenothiazin-10-yl)propyl)-N,N,3-trimethylbutan-1-aminium bromide] |
| 16 | 4 | 256 | 64 | 128 | 32 | 4 | 16 | 4 | 4 | – | – | – | – | – | – | – | – | – | – | C=CC[N+]1(C)CCCCC1CCN1c2ccccc2Sc2ccc(SC)cc21.[Br-] (stereo not shown) [Compound S42, 1-allyl-1-methyl-2-(2-(2-(methylthio)-10H-phenothiazin-10-yl)ethyl)piperidin-1-ium bromide] |
| – | – | – | – | – | – | – | – | – | – | 128 | 8 | 128 | 8 | 128 | 8 | 8 | 64 | 8 µg/mL | 8 | COC(=O)CCCCC[N+](C)(C)CCC=C1c2ccccc2Sc2ccc(Cl)cc21 [Chlorprothixene 6-Methoxy-6-oxo-1-hexyl] |
| 256 | 32 | 256 | 256 | 256 | 32 | 32 | 128 | 128 | 64 | – | – | – | – | – | – | – | – | – | – | CC[N+](C)(C)C(C)CN1c2ccccc2Sc2ccccc21.[Br-] (stereo not shown) [Compound S14, N-ethyl-N,N-dimethyl-1-(10H-phenothiazin-10-yl)propan-2-aminium bromide] |

From US20220313656A1, “NEW CLASS OF ANTIBIOTICS HAVING LOW MIC-VALUES TOWARDS DIFFERENT STRAINS OF BACTERIA” (priority 2019, published 2022)
